Assay results from patent publication US12286451B2, “Borate ester complexes of α-hydroxy carboxylic acids and their conjugate base buffers” (Medtech Products Inc., priority 2020, dated 2025).

Tests used:
[1] = Equivalence titration (0.5 milliequivalent) of reaction products with 0.1N sodium hydroxide; type: physicochemical; conditions: equivalent titration; for pKa: volume adjusted to 0.5 milliequivalent; for Capacity (buffer capacity): titrant required to raise the pH one unit from the pKa value
Description: (§1) Reaction products of boric acid and α-hydroxy carboxylic acids were prepared by diluting pre-made stock solution of 0.4M boric acid and 0.4M, 0.6M, and 0.8M α-hydroxy carboxylic acid. [table] Each reaction mixture was allowed to mix for a minimum of two hours before subsequent titration with 0.1N certified sodium hydroxide solution. Two sets of titrations were performed. The first set of titrations, molar titration, 5.0 ml of each solution is titrated to accurately determine end point and the pKa and pH at half of the end point. The second set of titrations, equivalence titration, solution volumes were adjusted to 0.5 milliequivalent and the buffer capacity determined. For simplicity, buffer capacity is reported as the milliequivalents of titrant required to raise the pH one unit from the pKa value. An exception was made for the 1:3 test ratio in which free α-hydroxy acid and the boric acid ester complex could not be distinguished between.

[2] = Molar titration of boric acid/α-hydroxy acid reaction products with 0.1N sodium hydroxide; type: physicochemical; conditions: for pKa: 5.0 ml solution, pH at half of the end point; for Capacity (buffer capacity): titrant required to raise the pH one unit from the pKa value
Description: as §1

| pKa [1] | Capacity (buffer capacity) [1] | pKa [2] | Capacity (buffer capacity) [2] | SMILES |
| --- | --- | --- | --- | --- |
| 4.3 | 39 milliequivalents | 4.3 | 39 milliequivalents | O=C(O)CC(O)(CC(=O)O)C(=O)O [Citric Acid 0, Citric Acid] |
| 3.9 | 13 milliequivalents | 3.9 | 13 milliequivalents | O=C(O)CO [Glycolic Acid 0, Glycolic Acid] |
| 4 | 11 milliequivalents | 4 | 11 milliequivalents | CC(O)C(=O)O (stereo not drawn) [Lactic Acid 0, Lactic Acid] |
